From patent publication US7488476B2, “B-cell epitope peptides of HSP 65, DNA encoding said peptides, antibodies directed against said peptides and the different uses thereof in the treatment of inflammatory and autoimmune diseases” (priority 1998, dated 2009)

Legend:
NOD mice = assay: Peptide 6 immunization of NOD mice: onset of diabetes and antibodies by ELISA; assay type: in vivo, mouse
Experimental: Naive NOD mice were immunized 3 times intradermally (I.D.) with 100 μg peptide 6 (SEQ ID: No. 2) in CFA and IFA. Control mice received PBS. Mice were monitored for the onset of diabetes by glucose test and for anti-peptide 6 or anti-HSP 65 antibodies by ELISA. Mice immunized with the peptide developed anti-peptide 6 as well as anti-HSP 65 antibodies as detected by OD (1.52±0.07 and 1.43±0.13 respectively) in comparison to CFA immunized mice (0.05±0.01 and 0.01±0.01) and control mice (0.09±0.06 and 0.16±0.16).
To test whether active immunization with the bacterial HSP peptide 6 (SEQ ID: No. 2) can induce protective immunoglobulins against other autoimmune disorders, for instance autoimmune diabetes, NOD mice were immunized with the mycobacterial peptide 6 (“protective” peptide). Naive NOD mice were immunized 3 times I.D. with either 100 μg peptide 6 in CFA and IFA or PBS (control). Mice were monitored for the onset of diabetes by glucose test (appearance of hyperglycemia) and for anti-peptide 6 or […] antibodies by ELISA. Mice immunized with the peptide developed anti-peptide 6 as well as anti-HSP 65 antibodies as reflected by OD (1.52±0.07 and 1.43±0.13 respectively) in comparison to CFA immunized mice (0.05±0.Oland 0.01±0.01) and control mice (0.09±0.06 and 0.16±0.16).

DBA/1 mice = assay: Modulation of collagen arthritis in DBA/1 mice; assay type: in vivo, mouse; conditions: active vaccination
rat immunoglobulins = assay: ELISA: antibodies of rat sera to Mycobacterial HSP 65 and its peptides; assay type: binding
Lewis rats [1] = assay: Anti HSP antibodies in Lewis rats immunized with HSP peptides (ELISA); assay type: in vivo, rat; conditions: 100 μg peptide in PBS, 3 times IP
Experimental: ELISA: Flat-bottomed 96 well plates (Corning) were coated with mammalian HSP 60 or Mycobacterial HSP 65 (10 μg/ml) in carbonate buffer pH 9.6 overnight at 4° C.
HSP peptides were attached to plates pre-treated with glutaraldehyde according to Kasprzyk et al.. Shortly, plates were coated with 100 μl/well of 5% w/v of glutaraldehyde in PBS for 1 hour at room temp. Plates were washed thoroughly with PBS and peptides (1 μg/100 μl) were added to each well, incubated overnight at 4° C. Plates were shaken dry and blocked with BSA 1% in PBS.
Plates coated with either HSP or peptides were washed again and incubated with rat sera diluted 1:100 with PBS-Tween 0.01% for 90 min. at room temp. After re-washing the plates were incubated with Goat anti rat IgG or IgM conjugated to alkaline-phosphatase for 60 min. at room temp. […] Optical density was measured photometrically at 405 nm.
Modulation of AA by mycobacterial and mammalian HSP peltides: HSP 65 derived peptides were tested for their ability to modulate the appearance or severity of AA in Lewis rats. Rats were immunized with 100 μg of each peptide in PBS, three weeks (3W), 2W and 1W before induction of AA by MT. Control rats received PBS. Rats were bled for testing antibody presence before injection of MT and 30 days post MT injection.
To test whether active immunization with bacterial or mammalian HSP peptides that are recognized by protective immunoglobulins can induce protection against AA, Lewis rats were immunized with the mycobacterial peptides 6, 7, 21, 31, 36, 45, 84, that bound antibodies from resistant Lewis rats (“protective” peptides), with some non-reactive mycobacterial HSP 65 peptides: peptide 26 (residues 151-166), 28 (residues 163-178) or peptide 70 (residues 415-430), and with the mammalian peptide 5.
Rats were injected 3 times intraperitoneally (IP), with one week intervals between injections before induction of AA with MT.

Lewis rats [2] = assay: Modulation of Adjuvant Arthritis by pre-immunization with HSP peptides; assay type: in vivo, rat; conditions: 3 IP injections at one week intervals before AA induction with MT, FIG. 4
[3] = NOD mice immunized 3 times I.D. with 100 μg peptide 6 in CFA and IFA, ELISA

GPKGRNVVLEKKWGAP [Peptide 6]
anti-HSP 65 antibodies (NOD mice; [3]): 1.43±0.13 OD | anti-peptide 6 antibodies (NOD mice; [3]): 1.52±0.07 OD | appearance of the diabetic symptoms (NOD mice; NOD mice, glucose test, FIG. 7): clearly delayed | number of sick mice (NOD mice; NOD mice, peptide-6 vaccinated group): significantly lowered | diabetes disease severity (NOD mice; NOD mice, FIG. 7): significantly reduced | murine collagen arthritis (DBA/1 mice): suppressed significantly | Antibodies to Mycobacterial HSP 65 Peptides (rat immunoglobulins; strain BN-6w): + (0.16-0.45 = +) | Antibodies to Mycobacterial HSP 65 Peptides (rat immunoglobulins; strain Lew-4m): + (0.16-0.45 = +) | Antibodies to Mycobacterial HSP 65 Peptides (rat immunoglobulins; strain Lew-6w): − (<O. 15 = −) | Antibodies to Mycobacterial HSP 65 Peptides (rat immunoglobulins; strain Lew-9m): + (0.16-0.45 = +) | Antibodies to Mycobacterial HSP 65 Peptides (rat immunoglobulins; strain Lew-Post AA): +++ (>0.75 = +++) | Anti HSP Antibodies in Immunized Lewis Rats, Antigen M5 (Lewis rats [1]; antigen M5): − (<O. 15 = −) | Anti HSP Antibodies in Immunized Lewis Rats, Antigen MT-HSP 65 (Lewis rats [1]; antigen MT-HSP 65): ++ (0.46-0.75 = ++) | Anti HSP Antibodies in Immunized Lewis Rats, Antigen 6 (Lewis rats [1]; antigen peptide 6): ++ (0.46-0.75 = ++) | Anti HSP Antibodies in Immunized Lewis Rats, Antigen 7 (Lewis rats [1]; antigen peptide 7): − (<O. 15 = −) | AA disease severity after pre-immunization (Lewis rats [2]): significant suppression of disease severity
